According to paper PMC9894920, “Development of an improved and specific inhibitor of NADPH oxidase 2 to treat traumatic brain injury” (Redox Biology, 2023):

Target: T1, NOX3 (Homo sapiens, UniProt Q9HBY0)
T1 construct: expressed in transfected cells; host or cells: Expi293 (human embryonic kidney) cells, transient transfection
T1 sequence (Q9HBY0 1-568): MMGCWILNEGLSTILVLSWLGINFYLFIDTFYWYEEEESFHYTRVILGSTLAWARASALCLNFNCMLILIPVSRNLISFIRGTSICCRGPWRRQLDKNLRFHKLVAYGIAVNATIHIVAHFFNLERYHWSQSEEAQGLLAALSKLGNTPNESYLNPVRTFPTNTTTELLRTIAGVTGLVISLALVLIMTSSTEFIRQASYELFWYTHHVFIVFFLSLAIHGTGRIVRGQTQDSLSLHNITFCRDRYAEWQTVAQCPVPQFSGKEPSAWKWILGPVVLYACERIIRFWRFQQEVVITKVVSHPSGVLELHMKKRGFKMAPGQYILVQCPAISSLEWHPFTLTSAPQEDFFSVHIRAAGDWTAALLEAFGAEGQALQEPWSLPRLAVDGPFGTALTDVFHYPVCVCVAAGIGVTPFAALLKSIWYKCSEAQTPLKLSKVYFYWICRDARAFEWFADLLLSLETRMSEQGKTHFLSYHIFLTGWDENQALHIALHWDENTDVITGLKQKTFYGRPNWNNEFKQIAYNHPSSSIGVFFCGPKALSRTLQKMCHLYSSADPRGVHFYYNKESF
T1 sequence (P13498 2-195 partner limits assumed): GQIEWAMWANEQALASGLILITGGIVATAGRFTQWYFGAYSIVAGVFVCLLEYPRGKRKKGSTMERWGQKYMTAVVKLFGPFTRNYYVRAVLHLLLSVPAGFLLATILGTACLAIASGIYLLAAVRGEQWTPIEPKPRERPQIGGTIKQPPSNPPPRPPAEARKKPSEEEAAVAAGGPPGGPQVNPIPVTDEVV
Assay: Expi293 whole cell assay, NOX3 overexpression
Type: cell-based
Settings: doses 100x higher than GSK2795039
Protocol: Given concerns about previous assays for specific NOX family members we here report the first use of the Expi293 Expression System (Thermo Scientific) to overexpress NOX1, 2, 3, 4, and 5 in excess of any endogenous NOX proteins present in these cells. Transfections were performed following the manufacturer's instructions using the plasmids for each NOX as described in Supplemental Table 2 except that the enhancer solution provided with the Expi293 system was not used because it promoted enzyme activation.
After the times indicated in Supplemental Table 2, cells were washed and 50,000 added per well of a white 96-well plate (Greiner) along with 50 μM Luminol and 2.5 U horseradish peroxidase/mL in a volume of 90 μl for NOX1, NOX2, and NOX5. Inhibitors or vehicle controls were added and cells were incubated for 20 min at 37 °C prior to activation with the indicated stimuli. For NOX3 and NOX4 (constitutively active), cells were incubated with inhibitor or vehicle control prior to the addition of luminol and HRP. Chemiluminescence was measured every 2 min for 1 s per well at 37 °C in a Varioscan Multimode reader. AUC data were analyzed using GraphPad Prism using non-linear regression analysis after expressing relative to control alone (maximum ROS production).

Cn1ccc(S(=O)(=O)Nc2ccnc3c2c(-c2ccc4ccn(C)c4c2)cn3C2CC2)n1 [NCATS-SM7270, N-(1-cyclopropyl-3-(1-methyl-1H-indol-6-yl)-1H-pyrrolo [2,3-b]pyridin-4-yl)-1-methyl-1H-pyrazole-3-sulfonamide]
activity against NOX3: no detectable activity
